This experiment relates to endocardial tissue slabs (incorporating the construct injection site). The arrangement: species or system dog.

The source of these data is patent US20160333071A1 (THE TRUSTEES OF COLUMBIA UNIVERSITY IN THE CITY OF NEW YORK, priority 2014, published 2016).

In the case of `NC1=N[C@H](O)[C@H]2[C@H]3O[C@]4(O)O[C@@H]([C@@H](O)[C@@]2(N1)[C@@H]4O)[C@]3(O)CO` [Tetrodotoxin, tetrodotoxin], the “effect on rate of isoproterenol-enhanced rhythms” value is “reductions in rate”.
For the compound `COc1cc2c(cc1OC)CC(=O)N(CCCN(C)C[C@H]1Cc3cc(OC)c(OC)cc31)CC2` [ivabradine], the “effect on rate of isoproterenol-enhanced rhythms” value is “reductions in rate”.
